Measurements reported in PubChem BioAssay (NCI).
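GI50: concentration for 50% inhibition of growth. The concentration for full growth arrest is given as TGI.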

How the values were obtained:
Experiment in all cases: DTP human tumour cell line panel, 384-well format
NCI-H226 lung = system: NCI-H226 lung
NCI-H23 lung = system: NCI-H23 lung
NCI-H322M lung = system: NCI-H322M lung
NCI-H460 NSCLC = system: NCI-H460 NSCLC
NCI-H522 lung = system: NCI-H522 lung
NCI/ADR-RES ovarian = system: NCI/ADR-RES ovarian
OVCAR-3 ovarian = system: OVCAR-3 ovarian
OVCAR-4 ovarian = system: OVCAR-4 ovarian
OVCAR-5 ovarian = system: OVCAR-5 ovarian
OVCAR-8 ovarian = system: OVCAR-8 ovarian
PC-3 prostate = system: PC-3 prostate
RPMI-8226 leukemia = system: RPMI-8226 leukemia
RXF 393 renal = system: RXF 393 renal
SF-268 CNS = system: SF-268 CNS
SF-295 CNS = system: SF-295 CNS
SF-539 CNS = system: SF-539 CNS
SK-MEL-2 melanoma = system: SK-MEL-2 melanoma
SK-MEL-28 melanoma = system: SK-MEL-28 melanoma
SK-MEL-5 melanoma = system: SK-MEL-5 melanoma
SK-OV-3 ovarian = system: SK-OV-3 ovarian
SN12C renal = system: SN12C renal
SNB-19 CNS = system: SNB-19 CNS
SNB-75 CNS = system: SNB-75 CNS
SR leukemia = system: SR leukemia
SW-620 colon = system: SW-620 colon
T-47D breast = system: T-47D breast
TK-10 renal = system: TK-10 renal
U251 glioblastoma = system: U251 glioblastoma
UACC-257 melanoma = system: UACC-257 melanoma
UACC-62 melanoma = system: UACC-62 melanoma

SMILES: Nc1ccn([C@@H]2C(F)=C(CO)[C@@H](O)[C@H]2O)c(=O)n1
- TGI (NCI-H226 lung): > 100 µM
- GI50 (NCI-H23 lung): 3.07 µM
- TGI (NCI-H23 lung): 13.1 µM
- GI50 (NCI-H322M lung): 5.74 µM
- TGI (NCI-H322M lung): > 100 µM
- GI50 (NCI-H460 NSCLC): 0.361 µM
- TGI (NCI-H460 NSCLC): 5.46 µM
- GI50 (NCI-H522 lung): 0.539 µM
- TGI (NCI-H522 lung): 57.3 µM
- GI50 (NCI/ADR-RES ovarian): 0.882 µM
- TGI (NCI/ADR-RES ovarian): 4.3 µM
- GI50 (OVCAR-3 ovarian): 4.47 µM
- TGI (OVCAR-3 ovarian): > 100 µM
- GI50 (OVCAR-4 ovarian): 23.5 µM
- TGI (OVCAR-4 ovarian): > 100 µM
- GI50 (OVCAR-5 ovarian): 1.02 µM
- TGI (OVCAR-5 ovarian): > 28.3 µM
- GI50 (OVCAR-8 ovarian): 0.704 µM
- TGI (OVCAR-8 ovarian): > 23.9 µM
- GI50 (PC-3 prostate): 5.23 µM
- TGI (PC-3 prostate): > 78.7 µM
- GI50 (RPMI-8226 leukemia): 0.292 µM
- TGI (RPMI-8226 leukemia): 0.922 µM
- GI50 (RXF 393 renal): 2.34 µM
- TGI (RXF 393 renal): > 72.1 µM
- GI50 (SF-268 CNS): 2.7 µM
- TGI (SF-268 CNS): > 100 µM
- GI50 (SF-295 CNS): 2.84 µM
- TGI (SF-295 CNS): > 92.8 µM
- GI50 (SF-539 CNS): 1.61 µM
- TGI (SF-539 CNS): > 100 µM
- GI50 (SK-MEL-2 melanoma): 19.8 µM
- TGI (SK-MEL-2 melanoma): > 100 µM
- GI50 (SK-MEL-28 melanoma): 1.25 µM
- TGI (SK-MEL-28 melanoma): > 100 µM
- GI50 (SK-MEL-5 melanoma): 7.7 µM
- TGI (SK-MEL-5 melanoma): 68.5 µM
- GI50 (SK-OV-3 ovarian): 5.57 µM
- TGI (SK-OV-3 ovarian): > 59.6 µM
- GI50 (SN12C renal): 0.5 µM
- TGI (SN12C renal): 4.9 µM
- GI50 (SNB-19 CNS): 3.37 µM
- TGI (SNB-19 CNS): > 100 µM
- GI50 (SNB-75 CNS): 12.3 µM
- TGI (SNB-75 CNS): > 100 µM
- GI50 (SR leukemia): 0.183 µM
- TGI (SR leukemia): 0.344 µM
- GI50 (SW-620 colon): 0.893 µM
- TGI (SW-620 colon): > 50.7 µM
- GI50 (T-47D breast): 10.7 µM
- TGI (T-47D breast): > 100 µM
- GI50 (TK-10 renal): 0.689 µM
- TGI (TK-10 renal): > 100 µM
- GI50 (U251 glioblastoma): 2.78 µM
- TGI (U251 glioblastoma): > 100 µM
- GI50 (UACC-257 melanoma): 28.2 µM
- TGI (UACC-257 melanoma): > 96.5 µM
- GI50 (UACC-62 melanoma): 3.87 µM
- TGI (UACC-62 melanoma): > 100 µM
